From patent US6924285B2, “Bicyclic heterocyclic compounds, pharmaceutical compositions containing these compounds, their use and process for preparing them” (Boehringer Ingelheim Pharma GmbH & Co., priority 2002, dated 2005)

What was measured:
[1] = biological target: T1, human EGF-receptor kinase (Homo sapiens, UniProt P00533); experiment: Inhibition of human EGF-receptor kinase (enzyme assay, ELISA read-out); type: biochemical; settings: cytoplasmic tyrosine kinase domain as GST fusion protein, substrate pEY/bio-pEY, 30 minutes at ambient temperature
T1 construct: GST; made in house; host or cells: Sf9 insect cells (baculovirus)
Description: The inhibition of human EGF-receptor kinase was determined using the cytoplasmic tyrosine kinase domain (methionine 664 to alanine 1186 based on the sequence published in Nature 309 (1984), 418). For this the protein was expressed in Sf9 insect cells as GST fusion protein using the Baculovirus expression system.
The enzyme activity was measured in the presence or absence of the test compounds in serial dilutions. The polymer pEY (4:1) obtained from SIGMA was used as the substrate. Biotinylated pEY (bio-pEY) was added as the tracer substrate. 100 μl of reaction solution contained 10 μl of the inhibitor in 50% DMSO, 20 μl of the substrate solution (200 mM HEPES pH 7.4, 50 mM magnesium acetate, 2.5 mg/ml poly(EY), 5 μg/ml bio-pEY) and 20 μl of enzyme preparation. The enzyme reaction was started by the addition of 50 μl of a 100 μM ATP solution in 10 mM of magnesium chloride. The dilution of the enzyme preparation was adjusted so that the incorporation of phosphate in the bio-pEY was linear in terms of time and quantity of enzyme. The enzyme preparation was diluted in 20 mM HEPES pH 7.4, 1 mM EDTA, 130 mM common salt, 0.05% Triton X-100, 1 mM DTT and 10% glycerol.
The enzyme assays were carried out at ambient temperature over a period of 30 minutes and ended by the addition of 50 μl of a stopping solution (250 mM EDTA in 20 mM HEPES pH 7.4). 100 μl were placed on a streptavidine-coated microtitre plate and incubated for 60 minutes at ambient temperature. Then the plate was washed with 200 μl of a wash solution (50 mM Tris, 0.05% Tween 20). After the addition of 100 μl of an HRPO-labelled anti-PY antibody (PY20H Anti-PTyr:HRP made by Transduction Laboratories, 250 ng/ml) the preparation was incubated for 60 minutes. Then the microtitre plate was washed three times with 200 μl of wash solution. The samples were then combined with 100 μl of a TMB-peroxidase solution (A:B=1:1, Kirkegaard Perry Laboratories). After 10 minutes the reaction was stopped. The extinction was measured at OD450 nm with an ELISA reader. All the results were measured three times.
The data were adapted by iterative calculation using an analytical pogramme for sigmoidal curves (Graph Pad Prism Version 3.0) with a variable Hill pitch. […] The active substance concentration which inhibits the activity of EGF receptor kinase by 50% (IC50) was derived from the curves.

T1 sequence (P00533 688-1210): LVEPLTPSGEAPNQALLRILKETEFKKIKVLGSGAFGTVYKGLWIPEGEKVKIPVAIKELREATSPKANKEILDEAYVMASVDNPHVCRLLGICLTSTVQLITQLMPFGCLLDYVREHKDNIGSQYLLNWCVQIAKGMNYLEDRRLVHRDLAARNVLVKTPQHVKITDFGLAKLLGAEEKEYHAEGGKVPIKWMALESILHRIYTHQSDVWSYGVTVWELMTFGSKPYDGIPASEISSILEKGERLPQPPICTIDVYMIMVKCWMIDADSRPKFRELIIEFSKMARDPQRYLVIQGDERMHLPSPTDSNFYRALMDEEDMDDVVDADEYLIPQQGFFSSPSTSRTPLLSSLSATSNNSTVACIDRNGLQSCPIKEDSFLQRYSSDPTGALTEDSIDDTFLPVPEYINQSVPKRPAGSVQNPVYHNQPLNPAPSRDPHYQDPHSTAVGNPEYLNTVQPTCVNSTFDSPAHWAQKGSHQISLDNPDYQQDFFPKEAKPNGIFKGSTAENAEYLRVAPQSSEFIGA

COc1cc2ncnc(Nc3ccc(F)c(Cl)c3)c2cc1O[C@H]1CC[C@@H](N)CC1 [Example 2, 4-[(3-chloro-4-fluoro-phenyl)amino]-6-(cis-4-amino-cyclohexan-1-yloxy)-7-methoxy-quinazoline x Trifluoroacetic Acid]
IC50 [1]: 4.5 nM
melting point: 232 °C
